This note sets out measurements from US20260116868A1 (Arcus Biosciences, Inc., priority 2023, published 2026).

Structures are written as SMILES. Like-named read-outs stand apart in the source and are kept apart here.

The target in one experiment is T1, Cbl-b (Homo sapiens, UniProt Q13191).
T1 construct: biotin (biotinylated protein)
The experiment can be described thus: Cbl-b probe displacement HTRF binding assay. The following applies: 0.4 nM Cbl-b, 150 nM BODIPY probe. An outline of the steps:
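Compound competes with BODIPY probe (150 nM) for biotinylated Cbl-b (0.4 nM) in HEPES/NaCl/Triton/TCEP/BSA buffer; 60 min preincubation, 15 min with probe, room temperature. Tb-streptavidin HTRF read; % displacement vs DMSO and no-protein controls, IC50 from four-parameter fit.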

In the next experiment the test system is Jurkat cells. Description: IL-2 secretion assay in Jurkat cells activated with CD3/CD28 T Cell Activator. In kind it is cell-based. The following applies: Homo sapiens, 24 h, read-out: IL-2 Secretion (EC50). An outline of the steps:
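Jurkat cells in Opti-MEM were preincubated 1 h at 37° C with compound (final 10 μM to 300 pM, 16-point 1:2 dilution), then activated with human CD3/CD28 T Cell Activator for 24 h at 37° C. Supernatant IL-2 measured by AlphaLISA; EC50 from 4-parameter logistic fit.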

Where [1] appears, read: Jurkat cells, CD3/CD28 T Cell Activator, IL-2 AlphaLISA.

T1 sequence (Q13191 whole entry, species assumed): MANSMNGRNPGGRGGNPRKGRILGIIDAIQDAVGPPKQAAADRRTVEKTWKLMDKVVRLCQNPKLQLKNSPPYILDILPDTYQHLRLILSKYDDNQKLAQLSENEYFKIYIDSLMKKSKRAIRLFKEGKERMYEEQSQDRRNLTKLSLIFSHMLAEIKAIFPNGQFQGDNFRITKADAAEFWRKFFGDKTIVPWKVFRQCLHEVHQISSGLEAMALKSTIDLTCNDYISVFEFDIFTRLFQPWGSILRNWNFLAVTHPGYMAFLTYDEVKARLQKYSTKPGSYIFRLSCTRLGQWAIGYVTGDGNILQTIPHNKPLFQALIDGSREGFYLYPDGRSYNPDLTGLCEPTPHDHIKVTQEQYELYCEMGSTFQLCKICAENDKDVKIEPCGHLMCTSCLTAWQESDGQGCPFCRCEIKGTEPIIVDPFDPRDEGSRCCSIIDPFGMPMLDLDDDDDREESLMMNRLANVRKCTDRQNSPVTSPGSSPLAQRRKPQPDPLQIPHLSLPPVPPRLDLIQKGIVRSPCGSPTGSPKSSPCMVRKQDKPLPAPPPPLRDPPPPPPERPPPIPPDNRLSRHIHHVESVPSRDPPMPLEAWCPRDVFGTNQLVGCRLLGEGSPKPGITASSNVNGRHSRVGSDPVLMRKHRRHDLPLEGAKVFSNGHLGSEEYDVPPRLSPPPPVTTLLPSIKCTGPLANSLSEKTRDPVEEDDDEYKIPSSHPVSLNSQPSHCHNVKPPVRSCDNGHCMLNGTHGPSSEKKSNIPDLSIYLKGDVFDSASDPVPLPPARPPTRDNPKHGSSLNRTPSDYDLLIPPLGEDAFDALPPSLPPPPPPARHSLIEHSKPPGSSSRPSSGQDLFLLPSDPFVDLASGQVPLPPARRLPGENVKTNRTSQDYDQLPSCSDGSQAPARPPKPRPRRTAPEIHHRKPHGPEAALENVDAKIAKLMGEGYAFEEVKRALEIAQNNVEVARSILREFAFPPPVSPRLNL

The molecule `Cc1ocnc1-c1cc(C#N)ccc1-c1cc(NC(=O)c2cc(CNC3(C)CCC3)cn(C3CC3)c2=O)nc(C2CC2)c1` [Example 53, N-{4-[4-cyano-2-(5-methyl-1,3-oxazol-4-yl)phenyl]-6-cyclopropyl-2-pyridyl}-1-cyclopropyl-5-[(1-methylcyclobutylamino)methyl]-2-oxo-1,2-dihydronicotinamide] gave an IC50 at Cbl-b of under 100 nM. The EC50 in the experiment on Jurkat cells (setting [1]) was in the range of 100 to 1000 nM.

With `COCCNCc1cc(C(=O)Nc2cc(-c3ccc(C#N)cc3-c3[nH]c(C)nc3C)cc(C3CC3)n2)c(=O)n(C2CC2)c1` [Example 54, N-{4-[4-cyano-2-(2,4-dimethyl-5-imidazolyl)phenyl]-6-cyclopropyl-2-pyridyl}-1-cyclopropyl-5-[(2-methoxyethylamino)methyl]-2-oxo-1,2-dihydronicotinamide], the 50% inhibitory concentration (IC50) on Cbl-b was under 100 nM. Besides, in the experiment on Jurkat cells (Jurkat), the EC50 is 100 to 1000 nM.

The molecule `Cn1cnnc1-c1cc(F)ccc1-c1cc(NC(=O)c2cc(CNC3(C)CCC3)cn(CC3CC3)c2=O)nc(C2CC2)c1` [Example 55] yielded a 50% inhibitory concentration (IC50) at Cbl-b of under 100 nM. Moreover, the concentration for a half-maximal effect (EC50) in the experiment with Jurkat cells (setting [1]) is under 100 nM.

`C[C@H]1CCCN(Cc2cc(C(=O)Nc3cc(-c4ccc(F)cc4-c4nncn4C)cc(C4CC4)n3)c(=O)n(CC3CC3)c2)C1` [Example 56, N-[6-cyclopropyl-4-[4-fluoro-2-(4-methyl-1,2,4-triazol-3-yl)phenyl]pyridin-2-yl]-1-(cyclopropylmethyl)-5-[[(3S)-3-methylpiperidin-1-yl]methyl]-2-oxopyridine-3-carboxamide] gave an IC50 on Cbl-b of under 100 nM. For the same molecule, in the experiment with Jurkat cells (setting [1]), the EC50 is under 100 nM.

On to `CC(C)n1cc(CN2CCC[C@H](C)C2)cc(C(=O)Nc2cc(-c3ccc(F)cc3-c3nncn3C)cc(C3CC3)n2)c1=O` [Example 57, N-[6-cyclopropyl-4-[4-fluoro-2-(4-methyl-1,2,4-triazol-3-yl)phenyl]pyridin-2-yl]-5-[[(3S)-3-methylpiperidin-1-yl]methyl]-2-oxo-1-propan-2-ylpyridine-3-carboxamide], for which the IC50 at Cbl-b is under 100 nM. Besides, in the experiment on Jurkat cells (setting [1]), the EC50 is under 100 nM.

Consider `C[C@H]1CCCN(Cc2cc(C(=O)Nc3cc(-c4ccc(F)cc4-c4nncn4C)cc(C4CC4)n3)c(=O)n(CC(F)(F)F)c2)C1` [Example 58, N-[6-cyclopropyl-4-[4-fluoro-2-(4-methyl-1,2,4-triazol-3-yl)phenyl]pyridin-2-yl]-5-[[(3S)-3-methylpiperidin-1-yl]methyl]-2-oxo-1-(2,2,2-trifluoroethyl)pyridine-3-carboxamide], for which, at Cbl-b, the 50% inhibitory concentration (IC50) is under 100 nM. Further, the concentration for a half-maximal effect (EC50) with Jurkat cells (setting [1]) was under 100 nM.

Molecule `C[C@H]1CCCN(Cc2cc(C(=O)Nc3cc(-c4ccc(F)cc4-c4nncn4C)cc(C4CC4)n3)c(=O)n(CCO)c2)C1` [Example 59, N-[6-cyclopropyl-4-[4-fluoro-2-(4-methyl-1,2,4-triazol-3-yl)phenyl]pyridin-2-yl]-1-(2-hydroxyethyl)-5-[[(3S)-3-methylpiperidin-1-yl]methyl]-2-oxopyridine-3-carboxamide] registered a half-maximal inhibitory concentration (IC50) at Cbl-b of under 100 nM. In the experiment with Jurkat cells (setting [1]), the half-maximal effective concentration (EC50) is under 100 nM.

`C[C@H]1CCCN(Cc2cc(C(=O)Nc3cc(-c4ccc(F)cc4-c4nncn4C)cc(C4CC4)n3)c(=O)n(CC3CCOCC3)c2)C1` [Example 60, N-[6-cyclopropyl-4-[4-fluoro-2-(4-methyl-1,2,4-triazol-3-yl)phenyl]pyridin-2-yl]-5-[[(3S)-3-methylpiperidin-1-yl]methyl]-1-(oxan-4-ylmethyl)-2-oxopyridine-3-carboxamide] gave an IC50 on Cbl-b of under 100 nM. Also, in the experiment on Jurkat cells (setting [1]), the EC50 was 100 to 1000 nM.

With `CC(C)Cn1cc(CN2CCC[C@H](C)C2)cc(C(=O)Nc2cc(-c3ccc(F)cc3-c3nncn3C)cc(C3CC3)n2)c1=O` [Example 61, N-[6-cyclopropyl-4-[4-fluoro-2-(4-methyl-1,2,4-triazol-3-yl)phenyl]pyridin-2-yl]-5-[[(3S)-3-methylpiperidin-1-yl]methyl]-1-(2-methylpropyl)-2-oxopyridine-3-carboxamide], at Cbl-b, the IC50 was under 100 nM. The EC50 in the experiment on Jurkat cells (setting [1]) was under 100 nM.
